Data on nine compounds can be found in patent US10196369B2, “Spirocyclic EBI2 modulators” (Sanford Burnham Prebys Medical Discovery Institute, priority 2013, dated 2019).

One may read the IC50 as the concentration that gives 50% inhibition. Lower therefore signals inhibition by little substance.

The structures appear in SMILES notation.

In this experiment the target is EBI2 (Homo sapiens, UniProt P32249). Put plainly: Cell-based luminescent assay of EBI2 modulation (7a,25-OHC stimulated). The note with it: 7a,25-OHC final assay concentration 80 nM, 60 minute incubation. A digest of the protocol: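 Cells expressing EBI2 were plated overnight, then treated 60 min at 37 °C with compound (final 4-5 uM) plus 7a,25-OHC (80 nM final). Detection reagent was added for 60 min at 25 °C in the dark, with luminescence read-out. Values were normalized between neutral and stimulator controls and corrected for plate patterns.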
EBI2, sequence (P32249 whole entry): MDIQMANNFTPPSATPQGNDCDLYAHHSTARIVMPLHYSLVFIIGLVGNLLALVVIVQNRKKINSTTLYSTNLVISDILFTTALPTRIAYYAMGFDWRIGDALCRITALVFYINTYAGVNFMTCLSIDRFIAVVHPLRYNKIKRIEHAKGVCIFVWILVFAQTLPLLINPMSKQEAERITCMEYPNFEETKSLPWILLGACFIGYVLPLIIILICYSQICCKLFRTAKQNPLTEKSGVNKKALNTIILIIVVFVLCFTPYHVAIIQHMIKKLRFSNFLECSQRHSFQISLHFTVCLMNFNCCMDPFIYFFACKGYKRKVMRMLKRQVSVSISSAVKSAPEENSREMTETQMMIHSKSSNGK

`N#Cc1ccc(C(=O)N2CCC3(CC2)CN(C(=O)/C=C/c2ccc(Br)cc2)C3)cc1F` [Compound C43, 4-({2-[(2E)-3-(4-bromophenyl)prop-2-enoyl]-2,7-diazaspiro[3.5]non-7-yl}carbonyl)-2-fluorobenzenecarbonitrile] registered an IC50 of less than 100 nM. The compound `O=C(C#Cc1ccc(Cl)cc1)N1CC2(CCN(C(=O)c3ccc(Cl)cc3)CC2)C1` [Compound C84, 3-(4-chlorophenyl)-1-{7-[(4-chlorophenyl)carbonyl]-2,7-diazaspiro[3.5]non-2-yl}prop-2-yn-1-one] came in with a 50% inhibitory concentration (IC50) of less than 100 nM. The same measure for `O=C(C#Cc1ccc(Cl)cc1)N1CC2(CCN(C(=O)c3ccc(C(F)(F)F)cc3)CC2)C1` [Compound C80, 3-(4-chlorophenyl)-1-(7-{[4-(trifluoromethyl)phenyl]carbonyl}-2,7-diazaspiro[3.5]non-2-yl)prop-2-yn-1-one]: less than 100 nM. The same measure for `O=C(C#Cc1ccc(F)cc1)N1CCC2(CC1)CN(Cc1ccc(F)cc1C(F)(F)F)C2` [Compound C90, 3-(4-fluorophenyl)-1-(2-{[4-fluoro-2-(trifluoromethyl)phenyl]methyl}-2,7-diazaspiro[3.5]non-7-yl)prop-2-yn-1-one]: 100 to 500 nM; for `O=C(c1cc2ccc(Br)cc2[nH]1)N1CC2(CCN(Cc3ccc(C(F)(F)F)cc3)CC2)C1` [Compound C63, 6-bromoindol-2-yl 7-{[4-(trifluoromethyl)phenyl]methyl}-2,7-diazaspiro[3.5]non-2-yl ketone]: 500 to 5000 nM; for `O=C(/C=C/c1ccc(Cl)c(Cl)c1)N1CC2(CCN(C(=O)c3ccc(F)cc3)CC2)C1` [Compound C28, (2E)-3-(3,4-dichlorophenyl)-1-{7-[(4-fluorophenyl)carbonyl]-2,7-diazaspiro[3.5]non-2-yl}prop-2-en-1-one]: less than 100 nM. Under `O=C(/C=C/c1ccc(Br)cc1)N1CCC2(CC1)CN(C(=O)c1cc(Cl)cc(Cl)c1)C2` [Compound C10, (2E)-1-{2-[(3,5-dichlorophenyl)carbonyl]-2,7-diazaspiro[3.5]non-7-yl}-3-(4-bromophenyl)prop-2-en-1-one] stands less than 100 nM; under `COc1ccc(C(=O)N2CC3(CCN(C(=O)C#Cc4ccc(F)cc4)CC3)C2)cc1` [Compound C89, 3-(4-fluorophenyl)-1-{2-[(4-methoxyphenyl)carbonyl]-2,7-diazaspiro[3.5]non-7-yl}prop-2-yn-1-one], 100 to 500 nM. On to `O=C(/C=C/c1ccc(Cl)c(Cl)c1)N1CCC2(CC1)CN(C(=O)/C=C/c1ccc(Cl)c(Cl)c1)C2` [Compound C35, (2E)-1-{2-[(2E)-3-(3,4-dichlorophenyl)prop-2-enoyl]-2,7-diazaspiro[3.5]non-7-yl}-3-(3,4-dichlorophenyl)prop-2-en-1-one], for which the concentration for half-maximal inhibition (IC50) was less than 100 nM.
